Results reported in paper PMC12072072 (International Journal of Molecular Sciences, 2025).

Columns and labels:
[1] = test system: CHO (Chinese hamster ovary); test: MTT assay, CHO cells; format: cell-based; settings: Cricetulus griseus, CHO, MTT assay, CHO cells, value (standard deviation); read-out: IC50 [μM] (±s) CHO
Experimental: Each medium was supplemented with 10% fetal bovine serum, 1% L-glutamine, and 1% penicillin/streptomycin solution. The cell lines were incubated at 37 °C in a humidified atmosphere containing 5% CO2. Cells were counted using the Fuchs–Rosenthal counting chamber (hemocytometer) with modifications.
The final product of this reaction gives violet formazan crystals. The number of live cells is proportional to the amount of formazan and is represented by the violet dye reagent. The details of the experiments are given, e.g., in [54].
Statistical analyses for the cytotoxic activity were carried out using the nonparametric Kruskal–Wallis H test for unpaired data and ANOVA Friedman two-way analysis of variance test for paired data. Statistical significance was tested using Dunn’s post-hoc test. The IC50 values compared to the control IC50 were calculated using GraphPad Prism v. 10.1.1. software.

[2] = test system: SKOV-3 (human ovarian carcinoma); settings: MTT assay, SKOV-3 cells; published earlier; ref [41]; read-out: IC50 [μM] (±s) SKOV-3; cited from earlier work
[3] = test system: HDFs (human dermal fibroblasts); settings: MTT assay, published earlier, ref [41], read-out: IC50 [μM] (±s) HDFs; cited from earlier work

## CC1(C)CC[C@]2(C(=O)O)CC[C@]3(C)C(=CC[C@@H]4[C@@]5(C)CC[C@H](O)C(C)(C)[C@@H]5CC[C@]43C)[C@@H]2C1 [Compound 1, oleanolic acid]
[1]
  IC50: 9.16 µM
[2]
  IC50: 18.8 µM
[3]
  IC50: 24.9 µM
